Active and inactive are the calls of the source. The rule behind the calls is not given here.
System: Mus musculus
Experiment: Anti-sepsis activity against BALB/c mouse model of LPS induced sepsis assessed as reduction in STING mRNA expression in liver at 1.25 to 5 mg/kg, IG administered once a day for 3 days followed by LPS stimulation for 12 hrs starting from 2 hrs post last dose by qRT-PCR analysis
Type: functional, organism-based
Conditions: dose 1.25-5 mg/kg, time 86.0 hrs

C=CCONC(=O)CCSSCCC(=O)O[C@@H]1CC[C@@]2(C)[C@@H](CC[C@@]3(C)[C@H]2[C@H](O)C[C@H]2/C(=C(\CCC=C(C)C)C(=O)OCc4ccccc4)[C@@H](OC(C)=O)C[C@@]23C)[C@@H]1C
Activity: Active

Reference: ChEMBL document CHEMBL5247586, “Discovery of fusidic acid derivatives as novel STING inhibitors for treatment of sepsis” (Eur J Med Chem, 2022)
